Experimental data reported in PMC9863716, “The Sequence Characteristics and Binding Properties of the Odorant-Binding Protein 2 of Euplatypus parallelus to Semiochemicals” (International Journal of Molecular Sciences, 2023).

How the values were obtained:
EparOBP2 [1] = assay: Titration of EparOBP2 with fluorescent probe 1-NPN (saturation and Scatchard plot); assay type: binding, Euplatypus parallelus; settings: 2 μM protein titrated with 2 to 20 μM 1-NPN, pH 7.4; read-out: K1-NPN (dissociation constant of 1-NPN)
Protocol: (§1) Nine semiochemicals related to the life activities of E. parallelus were used as candidate ligands. The binding capacities of EpraOBP2 were evaluated using an F-7000 fluorescence spectrometer (Hitachi, Tokyo, Japan). The fluorescent reporter N-phenyl-1-naphthylamine (1-NPN) was dissolved in chromatographic methanol at a concentration of 1 mM. The purified EparOBP2 was dissolved in 50 mM Tris-HCl (pH 7.4) at a final concentration of 2 μM. The fluorescence spectra were scanned between 360 and 650 nm. […] Prism 8 (GraphPad Software, San Diego, CA, USA) was used to calculate the dissociation constant of 1-NPN (K1-NPN).

EparOBP2 [2] = assay: Fluorescence competitive binding assay (displacement of 1-NPN); set-up: species or system Euplatypus parallelus; settings: 2 μM protein, 50 mM Tris-HCl pH 7.4; for Ki: Ki = IC50/(1 + [1-NPN]/K1-NPN); for IC50: ligand concentration displacing 50% of 1-NPN
Protocol: as §1
To calculate the binding ability of EparOBP2 with semiochemicals, different odor compounds were used to replace the 1-NPN from the EparOBP2/1-NPN complex. The odor ligands were dissolved in chromatographic methanol at a concentration of 1 mM and added as aliquots to the protein solution. The spectral results were obtained, and the dissociation constants of the competitors were calculated with the formula Ki = IC50/(1 + [1-NPN]/K1-NPN), where 1-NPN represents the free concentration of 1-NPN, while IC50 represents the ligand concentration displacing 50% of the fluorescent reporter.

rubber bark beetles = tested on: rubber bark beetles; set-up: method as in ref 16, 17 = [16]; 16. Shore T. McLean J. Attraction of Platypus wilsoni Swaine (Coleoptera: Platipodidae) to traps baited with sulcatol, ethanol and alpha-pinene Can. For. Serv. Res. Notes 1983 3 24 25 || [17]; 17. Chen Q. Liang X. Wu C. Chen Q. Zhang Z. Trapping effects of 12 aggregation pheromones on rubber bark beetles Chin. J. Trop. Crops 2019 40 2432 2439; settings: trapping experiments; cited from earlier work
E. parallelus = tested on: E. parallelus; set-up: method as in ref 7, 15 = [7]; 7. Zhou X. Guo J. Yin T. Gan W. Bai C. Xu F. Yang S. Research progress on rubber bark beetles and trapping control technology in China Chin. J. Trop. Crops 2021 42 3049 3054 || [15]; 15. Xu F. Research of Volatile Compounds of Rubber Tree and Its Behavioral Activities on Two Species of Bark Beetles Hainan University Haikou, China 2019 20 24; settings: cited from earlier work

c1ccc(Nc2cccc3ccccc23)cc1 [1-NPN, N-phenyl-1-naphthylamine]
Kd (EparOBP2 [1]): 4.98 µM

C=CC(C)(C)O [2-Methyl-3-buten-2-ol]
Ki (EparOBP2 [2]): 31.6 µM
IC50 (EparOBP2 [2]): 37.9 µM
attraction effects on rubber bark beetles (rubber bark beetles): attraction effects

CC(C)(O)c1ccccc1 [2-Phenyl-2-propanol]
Ki (EparOBP2 [2]): 23.3 µM
IC50 (EparOBP2 [2]): 27.9 µM
attraction effect on E. parallelus (E. parallelus): attraction effect

C=C1[C@H]2CC[C@@H]3[C@H]2C(C)(C)CCC[C@]13C [(+)-Longifolene]
Ki (EparOBP2 [2]): 41.3 µM
IC50 (EparOBP2 [2]): 49.6 µM
attraction effect on E. parallelus (E. parallelus): attraction effect

C=C(C)[C@@H]1CC=C(C)CC1 [(S)-(-)-Limonene]
Ki (EparOBP2 [2]): 33.7 µM
IC50 (EparOBP2 [2]): 40.4 µM
attraction effects on rubber bark beetles (rubber bark beetles): attraction effects

C=C1C2CCC(C2)C1(C)C (stereo not shown) [Camphene]
Ki (EparOBP2 [2]): 27.4 µM
IC50 (EparOBP2 [2]): 32.9 µM
attraction effects on rubber bark beetles (rubber bark beetles): attraction effects

C=CC(=C)CCC=C(C)C [Myrcene]
Ki (EparOBP2 [2]): 7.49 µM
IC50 (EparOBP2 [2]): 8.99 µM
attraction effects on rubber bark beetles (rubber bark beetles): attraction effects

CC1=C[C@H](O)[C@H]2C[C@@H]1C2(C)C [S-(-)-cis-Verbenol]
Ki (EparOBP2 [2]): 19.3 µM
IC50 (EparOBP2 [2]): 23.2 µM
attraction effects on rubber bark beetles (rubber bark beetles): attraction effects

CCCCCCCCCCCCCC [Tetradecane]
Ki (EparOBP2 [2]): 26 µM
IC50 (EparOBP2 [2]): 31.2 µM
attraction effect on E. parallelus (E. parallelus): attraction effect

CC1=CCC2CC1C2(C)C (stereo not drawn) [α-Pinene]
Ki (EparOBP2 [2]): 15.9 µM
IC50 (EparOBP2 [2]): 19.1 µM
attraction effects on rubber bark beetles (rubber bark beetles): attraction effects
